Data: PubChem BioAssay (NCI)
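All cell lines were grown in 96-well plates and treated with compound for 48 hours. The concentration for 50% growth inhibition is given as GI50. TGI marks complete inhibition of growth.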

Key:
Assay in all cases: inhibition of tumour cell growth, NCI panel, 48 h
RPMI-8226 leukemia = tested on: RPMI-8226 leukemia
CAKI-1 renal = tested on: CAKI-1 renal
HL-60(TB) leukemia = tested on: HL-60(TB) leukemia
COLO 205 colon = tested on: COLO 205 colon
SK-MEL-2 melanoma = tested on: SK-MEL-2 melanoma
KM12 colon = tested on: KM12 colon
CCRF-CEM leukemia = tested on: CCRF-CEM leukemia
DU-145 prostate = tested on: DU-145 prostate
SNB-19 CNS = tested on: SNB-19 CNS
SK-MEL-5 melanoma = tested on: SK-MEL-5 melanoma
RXF 393 renal = tested on: RXF 393 renal
K-562 leukemia = tested on: K-562 leukemia
HOP-62 NSCLC = tested on: HOP-62 NSCLC
MDA-MB-231 breast = tested on: MDA-MB-231 breast
SN12C renal = tested on: SN12C renal
UO-31 renal = tested on: UO-31 renal
MCF7 breast = tested on: MCF7 breast
HCT-15 colon = tested on: HCT-15 colon
OVCAR-8 ovarian = tested on: OVCAR-8 ovarian
OVCAR-4 ovarian = tested on: OVCAR-4 ovarian
IGROV1 ovarian = tested on: IGROV1 ovarian
OVCAR-5 ovarian = tested on: OVCAR-5 ovarian
SK-MEL-28 melanoma = tested on: SK-MEL-28 melanoma
NCI-H226 lung = tested on: NCI-H226 lung
NCI/ADR-RES ovarian = tested on: NCI/ADR-RES ovarian
LOX IMVI melanoma = tested on: LOX IMVI melanoma
UACC-257 melanoma = tested on: UACC-257 melanoma
MOLT-4 leukemia = tested on: MOLT-4 leukemia
SF-539 CNS = tested on: SF-539 CNS
ACHN renal = tested on: ACHN renal
UACC-62 melanoma = tested on: UACC-62 melanoma
HCC-2998 colon = tested on: HCC-2998 colon
M14 melanoma = tested on: M14 melanoma
HOP-92 NSCLC = tested on: HOP-92 NSCLC
SK-OV-3 ovarian = tested on: SK-OV-3 ovarian
OVCAR-3 ovarian = tested on: OVCAR-3 ovarian
A549 NSCLC = tested on: A549 NSCLC
BT-549 breast = tested on: BT-549 breast
HS 578T breast = tested on: HS 578T breast
TK-10 renal = tested on: TK-10 renal
EKVX NSCLC = tested on: EKVX NSCLC
SNB-75 CNS = tested on: SNB-75 CNS
MDA-MB-435 = tested on: MDA-MB-435
786-0 renal = tested on: 786-0 renal
MALME-3M melanoma = tested on: MALME-3M melanoma
SR leukemia = tested on: SR leukemia
NCI-H522 lung = tested on: NCI-H522 lung
U251 CNS = tested on: U251 CNS
T-47D breast = tested on: T-47D breast
HCT-116 colon = tested on: HCT-116 colon
NCI-H23 lung = tested on: NCI-H23 lung
SF-268 CNS = tested on: SF-268 CNS
A498 renal = tested on: A498 renal
HT29 colon = tested on: HT29 colon
PC-3 prostate = tested on: PC-3 prostate
SF-295 CNS = tested on: SF-295 CNS
NCI-H460 lung = tested on: NCI-H460 lung
SW-620 colon = tested on: SW-620 colon

## O=C(Nc1cccc(-c2nc(-c3ccc(NC(=O)c4cccnc4)cc3Cl)no2)c1)Nc1ccc(NC(=O)C2CC2)c(C(F)(F)F)c1
RPMI-8226 leukemia
  GI50: 303 nM
  TGI: 1100 nM
CAKI-1 renal
  GI50: 437 nM
  TGI: 1800 nM
HL-60(TB) leukemia
  GI50: 259 nM
  TGI: 997 nM
COLO 205 colon
  GI50: 380 nM
  TGI: 1610 nM
SK-MEL-2 melanoma
  GI50: 1140 nM
  TGI: 2980 nM
KM12 colon
  GI50: 376 nM
  TGI: 1750 nM
CCRF-CEM leukemia
  GI50: 270 nM
  TGI: 1900 nM
DU-145 prostate
  GI50: 435 nM
  TGI: 4210 nM
SNB-19 CNS
  GI50: 381 nM
  TGI: 1900 nM
SK-MEL-5 melanoma
  GI50: 381 nM
  TGI: 1400 nM
RXF 393 renal
  GI50: 247 nM
  TGI: 741 nM
K-562 leukemia
  GI50: 156 nM
  TGI: 10700 nM
HOP-62 NSCLC
  GI50: 361 nM
  TGI: 1800 nM
MDA-MB-231 breast
  GI50: 323 nM
  TGI: 1260 nM
SN12C renal
  GI50: 415 nM
  TGI: 1660 nM
UO-31 renal
  GI50: 1610 nM
  TGI: 5450 nM
MCF7 breast
  GI50: 228 nM
  TGI: 1220 nM
HCT-15 colon
  GI50: 784 nM
  TGI: 5620 nM
OVCAR-8 ovarian
  GI50: 449 nM
  TGI: 3100 nM
OVCAR-4 ovarian
  GI50: 565 nM
  TGI: 1830 nM
IGROV1 ovarian
  GI50: 258 nM
  TGI: 830 nM
OVCAR-5 ovarian
  GI50: 446 nM
  TGI: 1710 nM
SK-MEL-28 melanoma
  GI50: 559 nM
  TGI: 1710 nM
NCI-H226 lung
  GI50: 562 nM
  TGI: 1960 nM
NCI/ADR-RES ovarian
  GI50: 22200 nM
  TGI: > 100000 nM
LOX IMVI melanoma
  GI50: 174 nM
  TGI: 388 nM
UACC-257 melanoma
  GI50: 1330 nM
  TGI: 3490 nM
MOLT-4 leukemia
  GI50: 288 nM
  TGI: 1020 nM
SF-539 CNS
  GI50: 226 nM
  TGI: 655 nM
ACHN renal
  GI50: 2070 nM
  TGI: 13200 nM
UACC-62 melanoma
  GI50: 317 nM
  TGI: 1570 nM
HCC-2998 colon
  GI50: 689 nM
  TGI: 2060 nM
M14 melanoma
  GI50: 307 nM
  TGI: 1280 nM
HOP-92 NSCLC
  GI50: 522 nM
  TGI: 1330 nM
SK-OV-3 ovarian
  GI50: 1760 nM
  TGI: 3890 nM
OVCAR-3 ovarian
  GI50: 315 nM
  TGI: 1100 nM
A549 NSCLC
  GI50: 429 nM
  TGI: 4760 nM
BT-549 breast
  GI50: 1070 nM
  TGI: 3020 nM
HS 578T breast
  GI50: 324 nM
  TGI: 1290 nM
TK-10 renal
  GI50: 1920 nM
  TGI: 5460 nM
EKVX NSCLC
  GI50: 997 nM
  TGI: 5110 nM
SNB-75 CNS
  GI50: 224 nM
  TGI: 806 nM
MDA-MB-435
  GI50: 126 nM
  TGI: 381 nM
786-0 renal
  GI50: 994 nM
  TGI: 3110 nM
MALME-3M melanoma
  GI50: 240 nM
  TGI: 808 nM
SR leukemia
  GI50: 96.3 nM
  TGI: 962 nM
NCI-H522 lung
  GI50: 349 nM
  TGI: 1760 nM
U251 CNS
  GI50: 290 nM
  TGI: 1020 nM
T-47D breast
  GI50: 535 nM
  TGI: 2400 nM
HCT-116 colon
  GI50: 303 nM
  TGI: 1280 nM
NCI-H23 lung
  GI50: 411 nM
  TGI: 1570 nM
SF-268 CNS
  GI50: 1070 nM
  TGI: 4830 nM
A498 renal
  GI50: 161 nM
  TGI: 1890 nM
HT29 colon
  GI50: 336 nM
  TGI: 1430 nM
PC-3 prostate
  GI50: 226 nM
  TGI: 790 nM
SF-295 CNS
  GI50: 271 nM
  TGI: 752 nM
NCI-H460 lung
  GI50: 343 nM
  TGI: 1130 nM
SW-620 colon
  GI50: 345 nM
  TGI: 1510 nM
